In the test the test system is P388 leukemia ip, CD2F1 mice, survival T/C. The test is described as follows: NCI In Vivo Anticancer Drug Screen. Data for tumor model P388 Leukemia (intraperitoneal) in CD2F1 (CDF1) mice. To be noted: endpoint: median survival time, higher = longer survival. In outline:
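Mice carrying the transplanted tumor received test compound or vehicle. Survival was recorded in each group, and the value is the treated-group measurement divided by that of the vehicle-treated control group.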

Setting [1] is: dose: 25.0 mg/kg/injection, schedule: Q01DX005 (ip), vehicle: Klucel (hydroxypropylcellulose) (HPC).
[2] abbreviates: dose: 50.0 mg/kg/injection, schedule: Q01DX005 (ip), vehicle: Klucel (hydroxypropylcellulose) (HPC).
Where [3] appears, read: dose: 100.0 mg/kg/injection, schedule: Q01DX005 (ip), vehicle: Klucel (hydroxypropylcellulose) (HPC).
[4] abbreviates: dose: 200.0 mg/kg/injection, schedule: Q01DX005 (ip), vehicle: Klucel (hydroxypropylcellulose) (HPC).
Where [5] appears, read: dose: 100.0 mg/kg/injection, schedule: Q01DX001 (ip), vehicle: Klucel (hydroxypropylcellulose) (HPC).
Setting [6] is: dose: 200.0 mg/kg/injection, schedule: Q01DX001 (ip), vehicle: Klucel (hydroxypropylcellulose) (HPC).
The mark [7] stands for this setting: dose: 60.0 mg/kg/injection, schedule: Q01DX005 (ip), vehicle: saline with Tween-80.
[8] abbreviates: dose: 120.0 mg/kg/injection, schedule: Q01DX005 (ip), vehicle: saline with Tween-80.
Setting [9] is: dose: 240.0 mg/kg/injection, schedule: Q01DX005 (ip), vehicle: saline with Tween-80.
The mark [10] stands for this setting: dose: 50.0 mg/kg/injection, schedule: Q01DX009 (ip), vehicle: Klucel (hydroxypropylcellulose) (HPC).
Where [11] appears, read: dose: 100.0 mg/kg/injection, schedule: Q01DX009 (ip), vehicle: Klucel (hydroxypropylcellulose) (HPC).
[12] abbreviates: dose: 200.0 mg/kg/injection, schedule: Q01DX009 (ip), vehicle: Klucel (hydroxypropylcellulose) (HPC).
[13] abbreviates: dose: 25.0 mg/kg/injection, schedule: Q01DX009 (ip), vehicle: saline.

23 molecules from PubChem BioAssay AID330 (DTP/NCI, 2004) can be followed below.

Values joined by “and” are separate entries in the source; they are usually repeats but may differ in a detail not shown here. Equal values may be shown once. Toxic doses and inconclusive results are not listed.

For `CCCC[As](CCCC)SC1CC(OC(=O)c2ccccc2)C(OC(=O)c2ccccc2)C(COC(=O)c2ccccc2)O1` (stereo not drawn), the T/C reads like this: (dose: 6.25 mg/kg/injection, schedule: Q01DX009 (ip), vehicle: saline + alcohol) 108 % of control; (dose: 12.5 mg/kg/injection, schedule: Q01DX009 (ip), vehicle: saline + alcohol) 95 % of control; (dose: 25.0 mg/kg/injection, schedule: Q01DX009 (ip), vehicle: saline + alcohol) 105 % of control; (dose: 50.0 mg/kg/injection, schedule: Q01DX009 (ip), vehicle: saline + alcohol) 100 % of control.

With `CCOC(=O)Cn1nc2oc(=O)c(CCN3CCN(c4ccccc4OC)CC3)c(C)c2c1C`, the T/C by setting is: under setting [1], 103 % of control; under setting [2], 100 % of control; under setting [3], 87 % of control; under setting [4], 109 % of control.

`C#CCNC1=C(C)C(=O)C2=C(C1=O)[C@H](COC(N)=O)[C@]1(OC)[C@@H]3N[C@@H]3CN21`: the T/C is 163 % of control (dose: 12.0 mg/kg/injection, schedule: Q01DX001 (ip), vehicle: distilled water + Tween-80); 173 % of control (dose: 24.0 mg/kg/injection, schedule: Q01DX001 (ip), vehicle: distilled water + Tween-80); 165 % of control and 265 % of control (dose: 48.0 mg/kg/injection, schedule: Q01DX001 (ip), vehicle: distilled water + Tween-80); 203 % of control (dose: 96.0 mg/kg/injection, schedule: Q01DX001 (ip), vehicle: distilled water + Tween-80).

For the molecule `O=C1Cc2ccccc2NC(c2ccccc2)C1S(=O)(=O)c1ccccc1` (stereo not drawn), the T/C under setting [2] is 102 % of control, the T/C under setting [3] is 102 % of control and the T/C under setting [4] was 101 % of control.

In the case of `O=C(O)Cc1cn2cc(Cl)cc(Cl)c2n1`, the T/C under setting [5] is 114 % of control; the T/C under setting [6] was 101 % of control; the T/C (dose: 400.0 mg/kg/injection, schedule: Q01DX001 (ip), vehicle: Klucel (hydroxypropylcellulose) (HPC)) was 98 % of control.

Take `COc1ccc(C2CC(C)(OC)Oc3cc4c(cc32)OCO4)cc1` (stereo not drawn): the T/C was 100 % of control under setting [5] and 94 % of control under setting [6].

Take `COc1ccc(S(=O)(=O)N/N=C/c2cc([N+](=O)[O-])cc(I)c2O)cc1OC`: the T/C under setting [7] was 97 % of control, the T/C under setting [8] was 94 % of control and the T/C under setting [9] is 91 % of control.

For the molecule `COc1ccc(Nc2c3sc4cc(OC)ccc4nc-3c3ccccc3c2=O)cc1`, the T/C is 94 % of control (dose: 50.0 mg/kg/injection, schedule: Q01DX005 (ip), vehicle: saline with Tween-80); 92 % of control (dose: 100.0 mg/kg/injection, schedule: Q01DX005 (ip), vehicle: saline with Tween-80); 94 % of control (dose: 200.0 mg/kg/injection, schedule: Q01DX005 (ip), vehicle: saline with Tween-80).

Consider `COc1c2occc2c(NC(=O)CCl)c2ccc(=O)oc12`, for which the T/C is 100 % of control (dose: 100.0 mg/kg/injection, schedule: Q04DX002 (ip), vehicle: saline with Tween-80) and 93 % of control (dose: 200.0 mg/kg/injection, schedule: Q04DX002 (ip), vehicle: saline with Tween-80).

`C=C1C(=O)O[C@@H]2C[C@H](C)[C@@H]3CC[C@H](O)[C@@]3(CO)C[C@H]12`: the T/C is 102 % of control (dose: 12.5 mg/kg/injection, schedule: Q01DX005 (ip), vehicle: Klucel (hydroxypropylcellulose) (HPC)); 102 % of control under setting [1]; 103 % of control and 104 % of control under setting [2]; 114 % of control under setting [3]; 122 % of control under setting [4].

Consider `CN(C)c1ccc(/C=N/NC(=O)c2ccccc2NC(=O)c2ccccc2Cl)cc1`, for which the T/C (dose: 7.5 mg/kg/injection, schedule: Q01DX005 (ip), vehicle: Klucel (hydroxypropylcellulose) (HPC)) was 86 % of control and the T/C (dose: 15.0 mg/kg/injection, schedule: Q01DX005 (ip), vehicle: Klucel (hydroxypropylcellulose) (HPC)) is 86 % of control.

In the case of `CCOC(=O)Cn1ncnn1`, the T/C runs as follows: (dose: 100.0 mg/kg/injection, schedule: Q04DX003 (ip), vehicle: Klucel (hydroxypropylcellulose) (HPC)) 103 % of control; (dose: 200.0 mg/kg/injection, schedule: Q04DX003 (ip), vehicle: Klucel (hydroxypropylcellulose) (HPC)) 100 % of control; (dose: 400.0 mg/kg/injection, schedule: Q04DX003 (ip), vehicle: Klucel (hydroxypropylcellulose) (HPC)) 102 % of control.

As for `O=[N+]([O-])c1ccc(NCc2ccccc2)nc1`, the T/C is 107 % of control (dose: 50.0 mg/kg/injection, schedule: Q01DX009 (ip), vehicle: saline with Tween-80); 117 % of control (dose: 100.0 mg/kg/injection, schedule: Q01DX009 (ip), vehicle: saline with Tween-80); 112 % of control (dose: 200.0 mg/kg/injection, schedule: Q01DX009 (ip), vehicle: saline with Tween-80).

As to `COC(=O)/C=C(/C(=O)OC)N(C)Cc1ccccc1`, the T/C (dose: 25.0 mg/kg/injection, schedule: Q01DX009 (ip), vehicle: Klucel (hydroxypropylcellulose) (HPC)) is 97 % of control; the T/C under setting [10] was 104 % of control; the T/C under setting [11] was 98 % of control; the T/C (dose: 100.0 mg/kg/injection, schedule: Q04DX003 (ip), vehicle: saline with Tween-80) is 99 % of control; the T/C under setting [12] is 101 % of control; the T/C (dose: 200.0 mg/kg/injection, schedule: Q04DX003 (ip), vehicle: saline with Tween-80) was 99 % of control. Further, the T/C (dose: 400.0 mg/kg/injection, schedule: Q04DX003 (ip), vehicle: saline with Tween-80) was 101 % of control.

For `CCCCCCCCCCCC#N`, the T/C was 108 % of control (dose: 100.0 mg/kg/injection, schedule: Q04DX003 (ip), vehicle: saline); 104 % of control (dose: 200.0 mg/kg/injection, schedule: Q04DX003 (ip), vehicle: saline); 116 % of control (dose: 400.0 mg/kg/injection, schedule: Q04DX003 (ip), vehicle: saline).

In the case of `O=C1CC2(CCCC2)CC(=O)N1c1ccc(O)c(CN2CCCCC2)c1`, the T/C is 105 % of control under setting [10], 100 % of control under setting [11] and 102 % of control under setting [12].

Take `COc1cc(NCCC2CCCCN2)c2ncccc2c1` (stereo not drawn): the T/C runs as follows: (dose: 6.25 mg/kg/injection, schedule: Q01DX005 (ip), vehicle: saline) 100 % of control; (dose: 12.5 mg/kg/injection, schedule: Q01DX005 (ip), vehicle: saline) 100 % of control.

Take `COc1ccc(OC(=O)c2ccccc2)c2c1C(=O)C=CC2=O`: the T/C is 116 % of control (dose: 1.56 mg/kg/injection, schedule: Q01DX005 (ip), vehicle: saline with Tween-80); 111 % of control (dose: 3.13 mg/kg/injection, schedule: Q01DX005 (ip), vehicle: saline with Tween-80); 111 % of control and 116 % of control (dose: 6.25 mg/kg/injection, schedule: Q01DX005 (ip), vehicle: saline with Tween-80).

Take `CC(C)(C)N1CCC1`: the T/C is, setting by setting: under setting [2], 100 % of control; under setting [3], 99 % of control.

On to `CCCCCCCCCCCCCCCC[N+](C)(C)CCNC(=O)C1CSC(C)(C)N1C=O` (stereo not drawn), for which the T/C by setting is: (dose: 12.5 mg/kg/injection, schedule: Q01DX009 (ip), vehicle: saline) 106 % of control; under setting [13], 97 % of control.

Turning to `[Cl][Pt+2][Cl].[NH-]c1ccc(Cl)cc1[NH-]`, the T/C is 150 % of control (dose: 6.25 mg/kg/injection, schedule: Q04DX002 (ip), vehicle: saline with Tween-80); 157 % of control (dose: 12.5 mg/kg/injection, schedule: Q04DX002 (ip), vehicle: saline with Tween-80); 168 % of control (dose: 25.0 mg/kg/injection, schedule: Q04DX002 (ip), vehicle: saline with Tween-80).

Consider `O=c1[nH]c(=O)c2c([nH]1)oc1ccccc12`, for which the T/C is, setting by setting: under setting [7], 102 % of control; under setting [8], 95 % of control; under setting [9], 98 % of control.

In the case of `CCN(CC)CC(C)=O`, the T/C was 101 % of control under setting [13]; 102 % of control (dose: 50.0 mg/kg/injection, schedule: Q01DX009 (ip), vehicle: saline); 103 % of control (dose: 100.0 mg/kg/injection, schedule: Q01DX009 (ip), vehicle: saline); 104 % of control (dose: 200.0 mg/kg/injection, schedule: Q01DX009 (ip), vehicle: saline).
